Experimental data: patent US20240150372A1 (priority 2021, published 2024)
Where two headings read alike, the source gives them in different places.

How the values were obtained:
[1] = tested on: human cardiomyocytes; conditions: Rubi, L. et al 2017; cited from earlier work
[2] = tested on: adult human primary ventricular myocytes; test: Pro-arrhythmia assay in adult human primary ventricular cardiomyocytes (contractility); assay type: cell-based; conditions: 0.1-10 μM, 1 Hz pacing
Description: Cardiac adverse effects of iboga alkaloids and related analogs was assessed via a commercially available assay, procedure reported in (Nguyen, N. et al. 2017; Page, G. et al. 2016) (FIG. 1).
Isolation of adult human primary ventricular myocytes. Adult human primary ventricular myocytes were isolated from ethically consented donor hearts. A proprietary protocol was employed to enzymatically digest hearts and isolate cardiomyocytes.
Contractility recordings procedures. Cardiomyocytes were placed in a perfusion chamber mounted on the stage of inverted Motic AE31E (IonOptix) or Olympus IX83P1ZF microscopes (MyoBlazer) and continuously perfused at approximately 2 ml/min with recording buffer heated to 35±1° C. using an in-line heater from Warner Instruments (IonOptix & MyoBlazer) and allowed to equilibrate for 5 minutes under constant perfusion. The cells were field stimulated with supra-threshold voltage at a 1 Hz pacing frequency, with a bipolar pulse of 3 ms duration, using a pair of platinum wires placed on opposite sides of the chamber connected to a MyoPacer stimulator. […] The IonWizard software or MyoBLAZER Analysis software analyzed the periodicity in the optical density of these bands by means of a fast Fourier transform algorithm.
Pro-arrhythmia markers. […] STV (STV=Σ|CAn+1−CAn|(20×√2)^−1) was calculated with the last 20 transients of each control and test article concentration period. […]

[3] = target: human ethera-go-go-related gene (hERG) potassium channels (Homo sapiens (Human), UniProt Q12809); conditions: Alper, K. et al 2016; cited from earlier work
[4] = target: rVMAT2 (Rattus norvegicus (Rat), UniProt Q01827); test: rVMAT2 fluorometric transporter inhibition assay (FFN206 uptake, rVMAT2-HEK); assay type: cell-based
Description: (§1) Inhibition assays of transporters (hSERT and rVMAT2) were performed according to the following protocol.
(§2) Cell culture preparation and maintenance. Stably transfected hSERT-HEK and rVMAT2-HEK cellular cultures were maintained in Dulbecco's Minimal Essential Medium (DMEM) with GlutaMAX (Gibco) with the following additions: 10% (v/v) Fetal Bovine Serum (FBS, Atlanta Biologicals), 100 U/mL Penicillin (Gibco), and 10 μg/mL Streptomycin (Gibco). With regards to the former cell lineage, an additional ingredient, 500 μg/mL Geneticin (G418) (Gibco) was included to preserve the respective transgene.
(§3) hSERT and rVMAT2 fluorometric screening assays. For both hSERT and rVMAT2 screening experiments, respective singly transfected cells were seeded at a density of 0.09×10^6 cells/well in poly-D-Lysine (Alamanda Polymers, Inc.) coated white solid-bottom 96-well plates (Costar). Growth was permitted for approximately 44 hours in said aqueous media and at an incubation environment of 37° C. and 5% Carbon Dioxide. At the beginning of the experiment, the cellular growth solution was aspirated, and individual cells were rinsed with 150 μL of 1×Dulbecco's Phosphate Buffered Saline (PBS; HyClone). 63 μL of Experimental Media (consisting of the following contents: DMEM without phenol red but with 4.5 g/L of D-Glucose (Gibco), 1% (v/v) FBS (Atlanta Biologicals), 100 U/mL Penicillin (Gibco), and 10 μg/mL Streptomycin (Gibco)) with 2×tiered concentrations of inhibitor (or DMSO, the vehicle of these experiments) were added to the respective wells. […] A final solution of 120 μL of PBS is finally added to all corresponding wells for cell maintenance before undergoing fluorescence uptake reading by a BioTek H1MF plate reader. […]
(§4) Data analysis. […] Respective inhibitor values were first subtracted from vehicular values to quantify the respective fluorescence uptake. This metric was then analyzed using the dose-response-inhibitor nonlinear curve fitting model ([inhibitor] vs response (three parameters)) as supplied by GraphPad Prism 8 software. […]

[5] = tested on: C57BL/6J mice; test: Mouse tail-flick test; assay type: in vivo; conditions: s.c., cumulative doses 1-30 mg/kg, 30 min post injection
Description: C57BL/6J (8-12 weeks, 22-31 g) were purchased from the Jackson Laboratory (Bar Harbor, ME) and housed 5 mice per cage with food and water available ad libitum. Mice were maintained on a 12-hr light/dark cycle (lights on 7:00-19:00) and all testing was done in the light cycle. Temperature was kept constant at 22±2° C., and relative humidity was maintained at 50±5%. Mice were moved to the testing room 30 minutes before the experiment to allow for acclimation. The body weight of each mouse and base tail-flick value were recorded. Mice were administered a 1 mg/kg s.c. dose of compound solution (volume of injection 220-310 μL based on body weight). After injection mice were returned to the home cage and allowed to rest for 30 minutes. Thirty minutes post injection the tail-flick measurement was taken using thermal stimulation via IR on a Ugo Basile unit set to 52 PSU (ten seconds was used as a maximum latency to prevent tissue damage). Mice were then administered 3 mg/kg s.c. dose, allowed to rest for 30 minutes, followed by another tail-flick measurement. […] Tail-flick latencies for the different doses were expressed as percentage of maximum potential effect (% MPE) by subtracting the experimental value by the base tail flick value then dividing by the difference between the maximum possible latency (10 seconds) and the base tail-flick value and finally multiplying by 100. […]

[6] = target: hSERT (Homo sapiens (Human), UniProt P31645); test: hSERT fluorometric transporter inhibition assay (APP+ uptake, hSERT-HEK); assay type: cell-based
Description: as §1, §2, §3, §4

[7] = target: rKOR (Rattus norvegicus (Rat), UniProt P34975); test: rKOR agonist assay (cAMP), rKOR-CHO; assay type: cell-based
Description: EC50 values and % efficacy of control agonist (KOR: U-50,488) maximal response at 1 μM for rKOR-CHO were obtained by screening the selected compounds via commercially available assay services.

[8] = tested on: male F344 rats; test: Morphine self-administration, repeated dosing regimen; assay type: in vivo, rat
[9] = tested on: male F344 rats; test: Morphine intravenous self-administration, single administration; assay type: in vivo, rat; conditions: 40 mg/kg IP

CC[C@H]1C[C@H]2C[C@H]3c4[nH]c5ccc(O)cc5c4CCN(C2)C13 [noribogaine]
action potential repolarization [1]: significantly delayed action potential repolarization
pro-arrhythmia effects [2]: exhibits pro-arrhytmia effects
hERG block IC50 [3]: low micromolar

CCC1CC2C[C@@H]3c4oc5ccc(O)cc5c4CCN2C13 (stereo partly drawn) [(16S)-Oxa-noribogaine]
IC50 ([4]; ± SEM, read-out: rVMAT2 (IC50)): 2800 ± 550 nM
ED50, analgesia in tail-flick test [5]: > 30 mg/kg
IC50 ([6]; ± SEM, read-out: hSERT (IC50)): 2900 ± 680 nM
% efficacy of control agonist (KOR: U-50,488) maximal response at 1 μM ([7]; cAMP): (25%)
EC50 ([7]; cAMP, read-out: rKOR (EC50)): ~300 nM

CCC1CC2CC3c4oc5ccc(O)cc5c4CCN(C2)C13 (centres unmarked) [oxa-noribogaine]
pro-arrhythmia effects [2]: no pro-arrhytmia effects even at high concentrations
IC50 [4]: 670 ± 110 nM
morphine intake in the following three sessions ([8]; after first 10 mg/kg): approximately 40 % of baseline levels
morphine intake recovered after administration ([8]; after first 40 mg/kg): approximately 60 % of VEH levels
morphine intake at the end of the dosing regimen ([8]; after last 5 mg/kg): approximately 8 % of baseline levels
morphine intake in the following session ([8]; after second 10 mg/kg): approximately 25 % of baseline levels
morphine intake recovered over following three days ([8]; after second 40 mg/kg): approximately 50%
morphine intake eighteen days following the last administration ([8]; eighteen days after last 5 mg/kg): 40%
morphine intake in the session following administration ([8]; first 10 mg/kg): approximately 4 infusions
IC50 [6]: 900 ± 120 nM
EC50 [7]: < 10 nM
Emax ([7]; cAMP, read-out: % efficacy of control agonist (KOR: U-50,488) maximal response at 1 μM): 102%

CCC1CC2C[C@H]3c4oc5ccc(O)cc5c4CCN2C13 (stereo partly drawn) [(16R)-Oxa-noribogaine]
IC50 ([4]; ± SEM, read-out: rVMAT2 (IC50)): 140 ± 30 nM
ED50, analgesia in tail-flick test [5]: 2.8 mg/kg
IC50 ([6]; ± SEM, read-out: hSERT (IC50)): 450 ± 70 nM
% efficacy of control agonist (KOR: U-50,488) maximal response at 1 μM ([7]; cAMP): (96%)
EC50 ([7]; cAMP, read-out: rKOR (EC50)): < 10 nM

epi-oxa-noribogaine
morphine intake, duration of reduction [9]: significantly decreased morphine self-administration for three sessions
